Laboratory results from patent publication US9567649B2, “System for identification of microorganism and detection of infectious disease” (priority 2011, dated 2017).

Tests used:
Format in all cases: biochemical, Plasmodium falciparum
pfTopl [1] = assay: DNA cleavage-ligation assay with radio-labeled duplex DNA in absence or presence of CPT; conditions: 60 nM CPT, duplex OL62/OL63, 20 min at 37° C.
Description: Detection of PfTopl activity using radio-labeled DNA substrates: DNA cleavage reactions were carried out by incubating 20 nM duplex OL37/OL56 or OL62/OL63 with 500 fmol of pfTopl or hTopl in the absence or presence of 60 nM CPT for 20 min at 37° C. in 10 mM Tris (pH 7.5), 5 mM MgCI2, and 5 mM CaCI2 in a final volume of 20 μI. After the 20 min incubation, reactions were stopped with 0.5% (w/v) SDS. Samples were subjected to ethanol precipitation, resuspended in 10 μI of 1 mg/ml trypsin and incubated at 37° C. for 30 min. Reaction products were analyzed by denaturing polyacrylamide gel electrophoresis following standard procedures, and radioactive bands were visualized by PhosphorImaging.

pfTopl [2] = assay: REEAD: circularization of oligonucleotide sensors by purified pfTopl; conditions: control-circle added
Source text: Like human topoisomerasel (hTopl), pfTopl belongs to the family of nuclear typelB topoisomerases, which introduce transient single-strand breaks in double-stranded DNA with preference for a very degenerate consensus sequence. Cleavage results in a covalent enzyme-DNA intermediate allowing religation of the generated nick (FIG. 23). […] Based on this, five different oligonucleotides with potential of being circularized specifically by pfTopl cleavage-ligation were designed. These oligonucleotides (PfTopl (S1-S5)) all folded into a hairpin structure containing a probe- and a primer-annealing sequence in the single-stranded loop and a potential pfTopl recognizable sequence at the end of the double-stranded stem region (FIG. 1 b). […] To allow comparative quantification of signals generated in different reactions, a known concentration of control-circle with a unique probe-annealing sequence was added to the reaction mixtures before RCA and resulting RCPs visualized using a green-fluorescent probe. […]
(§1) REEAD-microscopic readout: The 5′-amine-conjugated primer was coupled to CodeLink Activated Slides (SurModics) according to the manufacturer's description. […] Quantification of pfTopl specific signals was performed as previously described^1. REEAD-HRP readout: Primer coupling to NHS-activated M-PVA Akl 1 magnetic beads (Chemagen) was performed according to the manufacturer's description. […]

pfTopl [3] = assay: REEAD in nuclear extract from HEK293T cells with or without spike-in pfTopl
Source text: The specificity of pfTopl(S1) for pfTopl in crude biological samples was addressed using nuclear extract from human HEK293T cells with or without spike-in pfTopl as a model for Plasmodium infection. […] Consequently, green signals observed in FIG. 22b, right panel, originated from hTopl and pfTopl activity in combination where pfTopl(S1) and S(Topl) competed for reaction by pfTopl at the expense of sensitivity.
Cell culture and nuclear extract preparation: Human embryonic kidney HEK293T cells were cultured in Dulbecco's Modified Eagle Medium (GIBCO) supplemented with 10% fetal bovine serum (FBS) (GIBCO), 100 units/mL penicillin and […] streptomycin (Invitrogen). Cells were incubated in a humidified incubator (5% CO2/95% air atmosphere at 37° C.). Cells were harvested with 0.5% Trypsin-EDTA (GIBCO).
Media was discarded and the cell washed in Phosphate-Buffered Saline (1×PBS) prior to nuclear extraction performed as previously described′. […]
as §1

Row | Molecule | effect of camptothecin on pfTopl ligation product (pfTopl [1]) | circularization efficiency by pfTopl (red signals relative to green signals) (pfTopl [2]) | specificity of sensor for pfTopl in nuclear extract (pfTopl [3])
1 | CC[C@@]1(O)C(=O)OCc2c1cc1n(c2=O)Cc2cc3ccccc3nc2-1 [camptothecin] | A ligation product is only observed upon incubation of the substrate with pfTopl in the absence of camptothecin | – | –
2 | pfTopl(S1): hairpin oligonucleotide sensor for pfTopl, sequence in the 2nd table (TCTAGAAAGTATAGGAACTTCGAACGACTCAGAATGACTG; hairpin, further chemistry not given here) | – | most efficient sensor of pfTopl | specificity of pfTopl(S1) for pfTopl even on a background of human nucleus content
3 | S(Topl): REEAD sensor previously demonstrated to react specifically with hTopl in human cell extract (SEQ ID NO: 25) (nucleic acid, chemistry not given here) AGAAAAATTTTTAAAAAAACTGTGAAGATCGCTTATTTTTTTAAAAATTTTTCTAAGTCTTTTAGATCCCTCAATGCTGCTGCTGTACTACGATCTAAAAGACTTAGA | – | circularizes S(Topl) | –
